Assay results: patent US20140357512A1, “HISTONE DEACETYLASE (HDAC) BIOMARKERS IN MULTIPLE MYELOMA” (priority 2013, published 2014)

Test system: human myeloma cell line MM.1S
Experiment: SILAC acetylated-lysine peptide profiling, HDAC inhibitor vs DMSO (light/heavy ratio)
Assay type: cell-based
From the text: An embodiment of the invention comprises utilizing the SILAC method in order to quantitate changes in protein expression between two or more populations of cells. The SILAC method is a technique based on mass spectrometry that detects differences in protein abundance among samples using non-radioactive isotopic labeling. The SILAC method is known in the art, and described in detail in Ong et al., “Stable Isotope Labeling by Amino Acids in Cell Culture, SILAC, as a Simple and Accurate Approach to Expression Proteomics”, Molecular & Cellular Proteomics, vol. 1, pp. 376-386 (2002), which is incorporated herein by reference in its entirety.
Briefly, the SILAC method involves growing two populations of cells in cell culture. The first population of cells is grown in growth media containing normal amino acids (“normal media”). The second population of cells is grown in media lacking a standard essential amino acid (such as lysine), but is then supplemented with a non-radioactive, isotopically labeled form of that essential amino acid (such as lysine labeled with ^13C atoms, rather than normal ^12C atoms), which is called “heavy media”. When the two populations of cells are each growing in the medium, they incorporate the amino acids into all of their proteins. The growth of cells maintained in the heavy media is no different from that in normal media. All peptides containing the heavy amino acids are heavier than their normal counterparts. The cells from each of the two populations of cells are lysed. The lysates from each of the two cell populations are then combined. The combined cell lysates are then analyzed by mass spectrometry. Pairs of chemically identical peptides of different stable isotope composition can be differentiated in a mass spectrometer due to their difference in mass. The ratio of peak intensities in the mass spectrum for such peptide pairs reflects the abundance ratio for the two proteins.
This example describes SILAC studies that were performed to compare the effects of three different HDAC inhibitors (Compound A, Compound B, and tubastatin A) to a control on a human multiple myeloma cell line. The HDAC inhibitors were also compared amongst themselves to determine differences in their effects.
A human myeloma cell line MM.1S was grown using either ^12C (light) or ^13C (heavy) lysine containing culture medium. The “heavy” cells were treated with DMSO as the control, and the “light” cells were treated with a single HDAC inhibitor at 37° C. for 6 hours. The heavy and light cells were lysed, and the lysates were mixed in 1:1 ratio and digested with the protease trypsin. The acetylated lysine containing peptides (due to the action of the HDAC inhibitor) in the digested peptide pool were captured by a non-specific anti-acetylated lysine antibody cocktail (the antibodies identify both light and heavy acetylated peptides), and subjected to mass spectrometry analysis in order to identify thousands of individual peptides.
Thousands of peptides were identified in pairs (^12C and ^13C) due to their known mass differences. The amino acid sequence and quantitative ratio (Light/Heavy) of a given peptide in two differentially treated cell lysates were then determined and annotated with their possible protein (gene) sources.
As stated above, three HDAC inhibitors (Compound A, Compound B, and Tubastatin A) were used. Thus, the SILAC method was performed three times, with a different HDAC inhibitor compared to a control each time. Accordingly, there are three pairs of quantitative data in the table below, i.e., Compound A:DMSO, Compound B:DMSO, and Tubastatin A:DMSO. A cut-off of 1.30 fold of change (increase or decrease) was then used to determine “changed” or “+” in the table, and any peptides with a fold of change less than 1.3 fold were determined to be “unchanged” or “0” in the table. Those peptides that were not identified were marked as “NA” in the table. […]

O=C(CCCCCCNC(=O)c1cnc(N(c2ccccc2)c2ccccc2)nc1)NO [Compound A, 2-(diphenylamino)-N-(7-(hydroxyamino)-7-oxoheptyl)pyrimidine-5-carboxamide]
L/H ratio of acetylated peptide DWVLNEFK(ac)HGK (SEQ ID NO: 33) (DDX5 [388], log 2 scale, drug vs DMSO): 0.00 | L/H ratio of acetylated peptide FEK(ac)[…] (SEQ ID NO: 32) (DDX17 [132], log 2 scale, drug vs DMSO): 0.00 | L/H ratio of acetylated peptide ELNK(ac)ILEGR (SEQ ID NO: 2) (DLAT [466], log 2 scale, drug vs DMSO): 0.00 | light to heavy ratio (L/H ratio) of acetylated peptide SQFLK(ac)YIEK (SEQ ID NO: 524) (DNA replication licensing factor MCM2 [534], gene MCM2, inhibitor:DMSO): −0.46 log 2 | light to heavy ratio (L/H ratio) of acetylated peptide TFEK(ac)SMMNLQTK (SEQ ID NO: 354) (DNA topoisomerase 1 [642], TOP1, drug:DMSO): 0.00 log 2 | L/H ratio of acetylated peptide VVK(ac)HPIFER (SEQ ID NO: 35) (DNAJB11 [247], log 2 scale, drug vs DMSO): 0.00 | L/H ratio of acetylated peptide (DVTLQK(ac)QCVPFR (SEQ ID NO: 486), 60S ribosomal protein L17 [55], RPL17): 0.71 log 2 | light to heavy ratio (L/H ratio) of acetylated peptide LNLDK(ac)MMEQK (SEQ ID NO: 603) (Dihydrolipoyl dehydrogenase mitochondrial [122], gene DLD, inhibitor:DMSO): 0.46 log 2 | light to heavy ratio (L/H ratio) of acetylated peptide DTYIENEK(ac)LISGK (SEQ ID NO: 352) (Dolichyl-diphosphooligosaccharide--protein glycosyltransferase subunit 1 precursor [626], RPN1, drug:DMSO): 0.00 log 2 | light to heavy ratio (L/H ratio) of acetylated peptide YNIEK(ac)DIAAHIK (SEQ ID NO: 553) (Dynein light chain 1 cytoplasmic [36], gene DYNLL1, inhibitor:DMSO): 0.40 log 2 | light to heavy ratio (L/H ratio) of acetylated peptide YNIEK(ac)DIAAYIK (SEQ ID NO: 331) (Dynein light chain 2 cytoplasmic [36], DYNLL2, drug:DMSO): 0.00 log 2 | L/H ratio of acetylated peptide (EHLLK(ac)YEYQPFAGK (SEQ ID NO: 482), Isoform 1 of WD repeat-containing protein 1 [95], WDR1): 0.47 log 2 | L/H ratio of acetylated peptide TSK(ac)NK(ac)SSLSR (SEQ ID NO: 14) (EP300 [1558:1560], log 2 scale, drug vs DMSO): 1.00 | light to heavy ratio (L/H ratio) of acetylated peptide YLAEK(ac)YEWDVAEAR (SEQ ID NO: 332) (Elongation factor 2 [638], EEF2, drug:DMSO): 0.00 log 2 | light to heavy ratio (L/H ratio) of acetylated peptide TFK(ac)GVVDVVMK (SEQ ID NO: 550) (Elongation factor G 2 mitochondrial precursor [265], gene GFM2, inhibitor:DMSO): 0.39 log 2 | light to heavy ratio (L/H ratio) of acetylated peptide KSDYIK(ac)LYVR (SEQ ID NO: 315) (Endoplasmin [410], HSP90B1, drug:DMSO): 1.00 log 2 | light to heavy ratio (L/H ratio) of acetylated peptide EK(ac)[…] (SEQ ID NO: 314) (Endoplasmin[ 142], HSP90B1, drug:DMSO): 1.00 log 2 | light to heavy ratio (L/H ratio) of acetylated peptide EVEEDEYK(ac)AFYK (SEQ ID NO: 261) (Endoplasmin[ 356], HSP90B1, drug:DMSO): 0.41 log 2 | light to heavy ratio (L/H ratio) of acetylated peptide K(ac)EELTLEGIR (SEQ ID NO: 510) (Eukaryotic initiation factor 4A-I [238], gene EIF4A1, inhibitor:DMSO): −0.60 log 2 | light to heavy ratio (L/H ratio) of acetylated peptide LMCK(ac)PIFSK (SEQ ID NO: 335) (Eukaryotic translation initiation factor 2 subunit 3 [312], EIF2S3, drug:DMSO): 0.00 log 2 | light to heavy ratio (L/H ratio) of acetylated peptide SHLAK(ac)EGLYQYK (SEQ ID NO: 533) (Eukaryotic translation initiation factor 3 subunit A [68], gene EIF3A, inhibitor:DMSO): −0.41 log 2 | L/H ratio of acetylated peptide (FGIAAK(ac)[…] (SEQ ID NO: 479), Isoform 2 of Voltage-dependent anion-selective channel protein 2 [224], VDAC2): −0.40 log 2 | light to heavy ratio (L/H ratio) of acetylated peptide, log 2 scale (FPHSAHQK(ac)YVR (SEQ ID NO: 253), Ribosomal protein L14 variant [71], RPL14): −0.39 | L/H ratio of acetylated peptide (FVATGHGK(ac)YEK (SEQ ID NO: 487), Lymphocyte-specific protein 1 [327], LOC100133284, LSP1): 0.75 log 2 | light to heavy ratio (L/H ratio) of acetylated peptide AVDLIQK(ac)HK (SEQ ID NO: 546) (Flap endonuclease 1 [252], gene FEN1, inhibitor:DMSO): 0.39 log 2 | light to heavy ratio (L/H ratio), log 2 scale, acetylated peptide GGVVGIK(ac)VDK (SEQ ID NO: 774) (Fructose-bisphosphate aldolase A [108], gene ALDOA, drug:DMSO): 1.00 | L/H ratio of acetylated peptide TCEESSFCK(ac)R (SEQ ID NO: 36) (GANAB [48], log 2 scale, drug vs DMSO): 0.00 | L/H ratio of acetylated peptide ASGLAAGK(ac)GVIVAK (SEQ ID NO: 37) (GART [156], log 2 scale, drug vs DMSO): 0.00 | L/H ratio of acetylated peptide LVK(ac)VWNLANCK (SEQ ID NO: 39) (GNB2L1 [175], log 2 scale, drug vs DMSO): 0.00 | L/H ratio of acetylated peptide IIVDELK(ac)QEVISTSSK (SEQ ID NO: 38) (GNB2L1 [271], log 2 scale, drug vs DMSO): 0.00 | L/H ratio of acetylated peptide (GSK(ac)K(ac)AVTK (SEQ ID NO: 490), Histone H2B type 2-E [16:17], HIST2H2BE): 1.00 log 2 | L/H ratio of acetylated peptide (ac)AHYNFK(ac)K (SEQ ID NO: 40) (GTPBP4 [7], log 2 scale, drug vs DMSO): 0.00 | L/H ratio of acetylated peptide (GVHPK(ac)FPEGGK (SEQ ID NO: 483), NADH-cytochrome b5 reductase 1 [124], CYB5R1): 0.48 log 2 | light to heavy ratio (L/H ratio) of acetylated peptide (ac)[…](ac)PGECLR (SEQ ID NO: 575) (Galectin-1 [13], gene LGALS1, inhibitor:DMSO): 0.42 log 2 | light to heavy ratio (L/H ratio) of acetylated peptide ISGASEK(ac)[…] (SEQ ID NO: 543) (Glutamate dehydrogenase 1 mitochondrial [503], gene GLUD1, inhibitor:DMSO): 0.39 log 2 | light to heavy ratio (L/H ratio) of acetylated peptide […](ac)YDNSLK (SEQ ID NO: 620) (Glyceraldehyde-3-phosphate dehydrogenase [139], gene GAPDH, inhibitor:DMSO): 0.48 log 2
